According to patent US20050019746A1, “Apoptosis-related kinase/GPCRs” (EiRx Therapeutics Limited, priority 2003, published 2005):
Entries after “also recorded” stand apart in the source; their conditions may differ.

Test system: cancer cell lines
Experiment: Anchorage Independence/Soft Agar Assay, summary over the cell lines
Type: cell-based, human
Settings: 14-day anchorage independent assay, over the cell lines examined
Method: The Anchorage Independence/Soft Agar Assay allows assessment of the influence of modulation of gene expression on clonal tumouroid formation by observing and quantifying tumouroid morphology and colony number over an extended period of logarithmic growth thereby ascertaining any cell death is induced.
Cells are seeded into a 6-well plate and allowed to adhere overnight at 37° C. in a humidified atmosphere containing 5% CO2 in air. Cells are next transfected with siRNA Oligomers, at a concentration of 2 μg, against the genes of interest. Transfections continued for 4 hrs after which the transfection solution is removed and cells are refed with fresh medium and allowed incubate overnight. Transfected cells are next harvested for seeding into soft agar assay as described below. Cells are seeded at 5×10^4 cells per well of a 6 well plate and incubated over a 12/14-Day period whilst proliferating in a 0.05% Agar/Medium cell suspension at 37° C. in a humidified atmosphere containing 5% CO2 in air. Colonies formed are subsequently stained with Crystal Violet, their morphology is assessed and colonies formed are enumerated at a 4× magnification.
The cytotoxic effect of each gene is determined by a reduction in colony number compared to our MS control, but any influence on the morphology of the colony is also noted.
As an internal reference, the known survival gene ‘Survivin’ was also targeted by siRNA.

Row | Substance | cell death / apoptosis in the soft agar assay
1 | siRNA MKNK: sense UACAUGGCCCCUGAGGUAGtt, antisense CUACCUCAGGGGCCAUGUAtt (sense UACAUGGCCCCUGAGGUAGTT; antisense CUACCUCAGGGGCCAUGUATT; chemistry not given here) | induced cell death consistently in 2 of the cell lines examined
2 | siRNA MPSK1: sense GGGUUAUGCCCACAGAGACtt, antisense GUCUCUGUGGGCAUAACCCtt (sense GGGUUAUGCCCACAGAGACTT; antisense GUCUCUGUGGGCAUAACCCTT; chemistry not given here) | significant cell death in all cell lines
3 | siRNA PSKH1: sense GAACCUGCACCGCUCCAUAtt, antisense UAUGGAGCGGUGCAGGUUCtt (sense GAACCUGCACCGCUCCAUATT; antisense UAUGGAGCGGUGCAGGUUCTT; chemistry not given here) | modulates apoptosis; also recorded: significant cell death in all cell lines
4 | siRNA Survivin: positive control siRNA, sense GAACUGGCCCUUCUUGGAGtt, antisense CUCCAAGAAGGGCCAGUUCtt (sense GAACUGGCCCUUCUUGGAGTT; antisense CUCCAAGAAGGGCCAGUUCTT; chemistry not given here) [reference compound] | induced cell death in all cell lines

Test system: DU145, PC3, HCT116 cells
Experiment: Annexin V apoptosis assay (Guava Nexin)
Type: cell-based, human
Settings: DU145, HCT116 or PC3, siRNA 50 nM, relative to mock transfected, FIG. 34
From the text: Apoptosis or programmed cell death is an important and active regulatory pathway of cell growth and proliferation. Cells respond to specific induction signals by initiating intracellular processes that result in characteristic physiological changes. Among these are externalisation of phosphotidylserine (PS) to the cell surface, cleavage and degradation of specific cellular proteins, compaction and fragmentation of nuclear chromatin and loss of membrane integrity (in late stages). Annexin V is a calcium-dependant phospholipid binding protein with a high affinity for phosphotidyl serine (PS), a membrane component normally localised to the internal face of the cell membrane. Early in the apoptotic pathway molecules of PS are translocated to the outer surface of the cell membrane where Annexin V can readily bind to them.
Annexin V assays are performed using the Guava Nexin Assay, which utilises Annexin V-PE to detect PS on the external membrane of apoptotic cells. The cell impermeant dye 7-AAD is included in the assay as an indicator of membrane structural integrity as it is excluded from live and early apoptotic cells but permeates late stage apoptotic and dead cells. Assays are performed using a Guava Technologies Personal Cytometer and Guava Nexin Kit (catalogue no. 4500-0010, Guava Technologies Inc) using a modification of the manufacturer's protocol, where cells are transfected with siRNA in 24-well plates and assays performed at 24, 48 and 72 hours post-transfection.
Cells (DU145, PC3 & HCT116) are plated at a density of 20000 cells/well in 500 μl medium in 24-well plates and incubated overnight at 37° C. in a humidified atmosphere containing 5% CO2. […]
The 500 μl of media is decanted from the cells and combined with 150 μl of PBS used to wash them. […] Then, 450 μl 1× Nexin Buffer is added to the cells and the cell population analysed using the Guava Personal Cytometer following the manufacturer's instructions. […] The total number of early and late apoptotic cells is measured and the relative number of apoptotic cells calculated. […]

Row | Substance | apoptosis by Annexin V staining
5 | siRNA EKI: siRNA duplex, sense GCACUGGAUCCAAAGCAUGtt, antisense CAUGCUUUGGAUCCAGUGCtt; same in Tables 9 and 11 (sense GCACUGGAUCCAAAGCAUGTT; antisense CAUGCUUUGGAUCCAGUGCTT; chemistry not given here) | undergo apoptosis
6 | siRNA NTKL: siRNA duplex, sense UGUGGAGCUGAUGAAGCACtt, antisense GUGCUUCAUCAGCUCCACAtt; same in Tables 9 and 11 (sense UGUGGAGCUGAUGAAGCACTT; antisense GUGCUUCAUCAGCUCCACATT; chemistry not given here) | undergo apoptosis
7 | siRNA ROCK: siRNA duplex, sense UACAUGCCUGGUGGAGAUCtt, antisense GAUCUCCACCAGGCAUGUAtt; same in Tables 9 and 11 (sense UACAUGCCUGGUGGAGAUCTT; antisense GAUCUCCACCAGGCAUGUATT; chemistry not given here) | undergo apoptosis
